Data from US20190298772A1, “COMBINATION THERAPY OF A T CELL-BASED THERAPY AND A BTK INHIBITOR” (Juno Therapeutics, Inc., priority 2016, published 2019).

Columns and labels:
[1] = system: anti-CD19 CAR T cells; test: Expression of CAR-T cell surface markers by flow cytometry after stimulation with irradiated K562-CD19 cells; format: cell-based, human
Excerpt: (§1) To generate CAR-expressing T cells, T cells were isolated by immunoaffinity-based enrichment from three healthy human donor subjects, and cells from each donor were activated and transduced with a viral vector encoding an anti-CD19 CAR. The CAR contained an anti-CD19 scFv, an Ig-derived spacer, a human CD28-derived transmembrane domain, a human 4-1BB-derived intracellular signaling domain and a human CD3 zeta-derived signaling domain. The nucleic acid construct encoding the CAR also included a truncated EGFR (tEGFR) sequence for use as a transduction marker, separated from the CAR sequence by a self-cleaving T2A sequence.
(§2) CAR-expressing CD4+ and CD8+ cells were mixed 1:1 for each donor, individually, and the pooled cells for each donor assessed in vitro under various conditions.
CAR-T cells generated as described above were plated at 100,000 cells/well on 96 well Poly-D-Lysine coated plates. Irradiated K562-CD19 target cells were added at an effector to target ratio of 2.5:1. […] Cells were harvested at 1, 2, 3, and 4 days, and were analyzed by flow cytometry for T cell activation and differentiation surface markers CD69, CD107a, PD-1, CD25, CD38, CD39, CD95, CD62L, CCR7, CD45RO and for truncated EGFR (a surrogate marker for CAR-transduced cells).

[2] = system: anti-CD19 CAR+ T cells; test: Ex vivo immunophenotyping (t-SNE) of CAR+ T cells from bone marrow at day 12; format: in vivo, NSG mice; conditions: day 12 post CAR T transfer
Experimental: (§3) NSG mice described in Example 2 were intravenously injected on day 0 with 5×10^5 Nalm-6 cells expressing firefly luciferase. […] To permit assessment of the effect of a combination therapy with the inhibitor, a suboptimal dose of anti-CD19 CAR T cells was i.v. injected into the mice at 5×10^5/mouse at day 5. As a control, mice were administered the vehicle control without administration of the CAR-T cells or inhibitor.
Cells were assessed for surface markers CD44, CD45RA, CD62L, CD154, CXCR3, CXCR4, and PD-1 by flow cytometry and T-distributed stochastic neighbor embedding (t-SNE) high dimensional analysis was performed using FlowJo software. […] FACs histograms showing the individual expression profiles of CD4, CD8, CD62L, CD45RA, CD44 and CXCR3 from the 4 gated t-SNE in FIG. 8B overlaid on the expression of the total population (shaded) is shown in FIG. 8C.

[3] = system: CAR-expressing T cells; test: RNA-Seq molecular signature of CAR-expressing T cells after 18 days serial stimulation; format: cell-based, human; conditions: day 18
Experimental: RNA isolation was performed using the RNEasy Micro Kit (Qiagen). Samples were sequenced and RNASeq reads were mapped to the human genome (GRCh38) and aligned to the GENCODE release 24 gene model. […] Differentially expressed genes were identified by imposing a log2 fold change cutoff of 0.5 and a Benjamini-Hochberg adjusted false discovery rate (FDR) cutoff of 0.05.

[4] = system: anti-CD19 CAR-T cells from DLBCL subjects; test: Serial restimulation and cytolytic function of anti-CD19 CAR-T cells manufactured from DLBCL patients; format: cell-based, human
Excerpt: Anti-CD19 CAR-T cells were generated substantially as described in Example 1, except that T cells were isolated from two different human subjects having diffuse large B-cell lymphoma (DLBCL). […] Cells were subjected to serial restimulation over a 21 day culture period and monitored for cell expansion and cytotoxic activity.

[5] = system: anti-CD19 CAR T cells; test: Serial restimulation assay of anti-CD19 CAR+ T cells with K562-CD19 target cells; format: cell-based, human
Excerpt: as §1, §2
(§4) The ability of cells to expand ex vivo following repeated stimulations in some aspects can indicates capacity of CAR-T cells to persist (e.g., following initial activation) and/or is indicative of function and/or fitness in vivo (Zhao et al. (2015) Cancer Cell, 28:415-28). Anti-CD19 CAR+ T cells generated as described above were plated in triplicate at 100,000 cells/well on 96 well Poly-D-Lysine coated plates, and irradiated target cells (K562-CD19) were added at an effector to target ratio of 2.5:1. […] A total of 7 rounds of stimulation during a 25 day culture period were carried out.

[6] = system: CD19+Nalm-6 disseminated tumor line; test: Nalm-6 disseminated tumor xenograft mouse model, ibrutinib by daily oral gavage; format: in vivo, NOD/Scid/gc−/− (NSG) mice
Excerpt: On day zero (0), NSG mice were intravenously injected with 5×10^5 Nalm-6 cells expressing firefly luciferase. […] To permit assessment of the effect of a combination therapy with the inhibitor, a suboptimal dose of anti-CD19 CAR T cells from two different donors (generated by transducing cells derived from samples of human donor subjects essentially as described above) were i.v. injected into each mouse at a concentration of 5×10^5 CAR+ T cells per mouse at day 5. […] Eight (N=8) mice per group were monitored.
Following treatment as described above, tumor growth over time was measured by bioluminescence imaging and the average radiance (p/s/cm^2/sr) was measured. Survival of treated mice also was assessed over time.

[7] = system: anti-CD19 CAR T cells; test: Cytokine production in supernatants of CAR-T / K562-CD19 co-cultures (MSD); format: cell-based, human
Excerpt: as §1, §2
CAR-T cells generated as described above were plated at 100,000 cells/well on 96 well Poly-D-Lysine coated plates to which irradiated target cells (K562-CD19) were added at an effector to target ratio of 2.5:1. […] Culture supernatants were harvested every 24 hrs at days 1, 2, 3 and 4, and IFNγ, IL-2, TNFα, IL-4 and IL-10 were measured from the culture supernatants using cytokine kits from Meso Scale Discovery (MSD).

[8] = system: CD19+Nalm-6 disseminated tumor line; test: Nalm-6 disseminated tumor xenograft mouse model, ibrutinib in drinking water; format: in vivo, NSG mice
Experimental: as §3

[9] = system: anti-CD19 CAR+ T cells; test: Pharmacokinetic analysis of CAR+ T cells and tumor cells in blood, bone marrow and spleen; format: in vivo, NSG mice
Experimental: as §3
Samples were analyzed to assess presence and levels of CAR T cells (based on expression of the surrogate marker using an anti-EGFR antibody) and/or tumor cells at days 7, 12, 19 and 26 post CAR+ T cell transfer.

[10] = system: anti-CD19 CAR T cells; test: Gene expression analysis (Nanostring Immune V2 panel) after 18 days serial stimulation; format: cell-based, human; conditions: 50 nM or 500 nM; day 18
Excerpt: At day 18 after serial stimulation, RNA was isolated from anti-CD19 CAR T cells and Nanostring Immune V2 panel tests were run across 594 genes. The log 2 (fold change) of each gene was plotted against the −log 10(Raw p-value) derived from ANOVA tests of unscaled housekeeping gene normalized to count data for treatment versus control.

[11] = system: anti-CD19 CAR T cells; test: Cytolytic activity of anti-CD19 CAR T cells co-cultured with K562-CD19 target cells in the presence of ibrutinib; format: cell-based, human
Excerpt: as §1, §2
CAR T cells generated as described above were plated in triplicate on Poly-D-Lysine plates and then co-cultured with ibrutinib-resistant CD19-expressing target cells (K562 cells transduced to express CD19, K562-CD19) at an effector to target (E:T) ratio of 2.5:1. The target cells were labeled with NucLight Red (NLR), to permit tracking of target cells by microscopy.

[12] = system: anti-CD19 CAR T cells; test: TH1 phenotype and marker flow cytometry of CAR T cells from serial restimulation; format: cell-based, human
Experimental: as §4
A serial restimulation assay was performed as described above and cells were harvested at various times and analyzed by flow cytometry to assess percentage of TH1-phenotype (assessed as CD4+CXCR3+CRTH2−) T cells or TH2-phenotype (assessed as CD4+CXCR3−CRTH2+).

Question: `C=CC(=O)N1CCC[C@@H](n2nc(-c3ccc(Oc4ccccc4)cc3)c3c(N)ncnc32)C1` [ibrutinib] was tested. Which “expression of truncated EGFR, CD25, CD38, CD39, CD95, CD62L, CCR7, CD45RO” value ([1]; 5000, 500, 50, 5 and 0.5 nM, 3 donors, up to 4 days) did it give?
Answer: The value was “no significant effect”.

Question: And the “phenotype as central (TCM) or effector (TEM) memory subsets (CCR7, CD45RA)” value ([1]; over four days after stimulation)?
Answer: Its value is “did not affect the phenotype”.

Question: And the “expression levels of CD69, CD107a or PD-1 on CD4+ or CD8+ cells” value ([1]; seen at highest (supraphysiological) concentration)?
Answer: Its value is “subtle decrease”.

Question: And the “population 4 (CD4+CD44hi CXCR3 CD45RAhi CD62Lhi) as share of CAR-T cells” value ([2]; bone marrow, ibrutinib-treated animals)?
Answer: The value was 15.2%.

Question: And the “populations 2 and 4 in bone marrow vs control mice” value ([2]; CAR T plus ibrutinib)?
Answer: The value was “increase”.

Question: And the gene expression changes ([3]; 50 nM)?
Answer: The gene expression changes was “not significant, similar trends”.

Question: And the “number of protein-coding genes with significantly altered expression” value ([3]; 500 nM, FDR<0.05, absLog2FC>0.5)?
Answer: The value was 23.

Question: And the “expression of HES6, HIC1, LZTFL1, NRIP1, CD38 and RARRES3” value ([3]; ibrutinib vs control)?
Answer: Its value is “downregulation”.

Question: And the “expression of MSC” value ([3]; ibrutinib vs control)?
Answer: Its value is “upregulation”.

Question: And the “expression of SELL/CD62L” value ([3]; ibrutinib vs control)?
Answer: Its value is “increases”.

Question: And the “expression of granzyme A and CD38” value ([3]; ibrutinib vs control)?
Answer: The value was “decreases”.

Question: What about the cytolytic activity ([4]; 50 nM, after 16 days, one patient, P<0.01) of the same molecule?
Answer: Its cytolytic activity is “increase in cytolytic activity”.

Question: What about the cytolytic function ([4]; 500 nM, after 16 days serial stimulation, each subject) of the same molecule?
Answer: The cytolytic function was “increase in cytolytic function”.

Question: And the “proliferation (cell doublings) of patient-derived CAR T cells” value ([4]; 50 and 500 nM, 21 day culture, two DLBCL patients)?
Answer: The value was “did not inhibit the proliferation”.

Question: What about the “CD62L expression by flow cytometry” value ([5]; after 18 days serial stimulation, donors 2 and 3) of the same molecule?
Answer: Its value is “significant increase in CD62L expression”.

Question: And the “cell numbers and population doublings” value ([5]; day 18, 50 and 500 nM, two of three donors)?
Answer: The value was “enhanced cell numbers and population doublings”.

Question: What about the cell counts ([5]; donor 3, day 18, highest concentration tested) of the same molecule?
Answer: The cell counts was “Non-significant, increased cell counts”.

Question: And the “median survival vs CAR T + vehicle” value ([6]; ibrutinib 25 mg/kg qd P.O. plus suboptimal anti-CD19 CAR T cells, FIG. 6C)?
Answer: The value was “increased median survival”.

Question: And the “tumor growth vs CAR-T cells and vehicle” value ([6]; ibrutinib 25 mg/kg qd P.O. plus suboptimal dose anti-CD19 CAR T cells)?
Answer: The value was “significantly decreased tumor growth”.

Question: What about the “tumor burden (average radiance) vs vehicle” value ([6]; ibrutinib alone, 25 mg/kg qd P.O., no CAR-T cells) of the same molecule?
Answer: The value was “no effect on tumor burden”.

Question: What about the “survival at greater time points vs CAR T and vehicle” value ([6]; ibrutinib plus CAR T, two donors, FIG. 6D, p<0.001) of the same molecule?
Answer: Its value is “significantly increased survival”.

Question: What about the “IFN-γ and IL-2 production” value ([7]; 50 nM ibrutinib) of the same molecule?
Answer: The value was “some increase”.

Question: What about the cytokine production ([7]; 50 nM ibrutinib, some donors) of the same molecule?
Answer: Its cytokine production is “modestly increased cytokine production”.

Question: What about the cytokine concentrations ([7]; physiological concentrations of ibrutinib) of the same molecule?
Answer: The cytokine concentrations was “did not significantly decrease cytokine concentrations”.

Question: And the “tumor growth vs CAR T with vehicle” value ([8]; ibrutinib 25 mg/kg/day in drinking water plus CAR T)?
Answer: The value was “significantly (P<0.001) decreased tumor growth”.

Question: And the “median survival vs CAR T + vehicle” value ([8]; ibrutinib 25 mg/kg/day in drinking water plus suboptimal anti-CD19 CAR-T cells, p<0.001)?
Answer: The value was “increased median survival”.

Question: And the “tumor cells in blood, bone marrow or spleen vs vehicle” value ([9]; CAR+ cell treatment combined with ibrutinib)?
Answer: The value was “significantly fewer tumor cells”.

Question: And the “circulating CAR+ T cells vs CAR+ T cells and vehicle” value ([9]; blood, days 7-26 post transfer, ibrutinib in drinking water)?
Answer: Its value is “significant increase in circulating CAR+ T cells”.

Question: And the “number of cells in the blood” value ([9]; day 19 post CAR-T cell transfer, p<0.05)?
Answer: The value was “significant increase in the number of cells in the blood”.

Question: What about the “gene expression across 594 genes” value [10] of the same molecule?
Answer: Its value is “did not significantly alter gene expression”.

Question: What about the “cytolytic function of anti-CD19 CAR T cells” value ([11]; all concentrations tested (5000, 500, 50, 5, 0.5 nM) during co-culture) of the same molecule?
Answer: Its value is “did not inhibit the cytolytic function”.

Question: And the target cell killing ([11]; one donor, P<0.0001)?
Answer: The target cell killing was “modestly increased target cell killing”.

Question: What about the “cytolytic activity of anti-CD19 CAR-expressing T cells (target cell killing normalized to untreated control, AUC)” value ([11]; two donors, up to supra-physiological 500 nM, E:T 2.5:1, 4 days) of the same molecule?
Answer: The value was “did not significantly impact cytolytic activity”.

Question: And the “percentage of TH1 cells” value ([12]; 500 nM, 18-day serial stimulation, P<0.01)?
Answer: The value was “further enhanced the percentage of TH1 cells”.

Question: What about the “additional CAR T activation or memory markers” value ([12]; CAR T cells from serial stimulation assay) of the same molecule?
Answer: The value was “No significant effects”.

Question: And the “percentage of CAR+ T cells with TH1 phenotype (CD4+CXCR3+CRTH2−)” value ([12]; after serial stimulation, greater with increasing concentrations)?
Answer: Its value is “increase the percentage”.
